Data reported in patent US8771953B2, “Evaluation of the potential risk of drug induced mood disturbance and suicide: use of a dedicated platform” (Biocortech, priority 2008, dated 2014).
Read-outs that look alike come from different tables or passages of the source. Marks after values point to notes of the source that are not given here.

Experiments:
5-HT2cR mRNA = test: Editing profile of 5-HT2cR mRNA isoforms by CE-SSCP (nested PCR) in SH-SY5Y cells; enzyme activity indexes worked out from the profile; assay type: cell-based, human; conditions: for activation at 10 µM: Homo sapiens; for alteration of 5-HT2cR mRNA editing compared with that observed after INFα treatment (component analysis, FIG. 4): SH-SY5Y cells, 48 hours, 10 μM
ADAR1a mRNA = test: Q-PCR of ADAR1a mRNA expression in SH-SY5Y cells; assay type: cell-based; conditions: Homo sapiens, 10 micromolar, 24 hours, read-out: QPCR: RNA expresion (% of variation) ADAR1a
Description: ADAR1a RNA Expression in SH-SY5Y cells (Q-PCR, Applied TaqMan probes ref: Hs 01020780_m1).
(§1) The SH-SY5Y Human neuroblastoma cell line was purchased from ECACC (EC94030304 from the European Collection of Cell Cultures (ECACC)). The cell line SH-SY5Y is a thrice-cloned neuroblastoma, originally from SK-N-SH and first reported in 1978. A neuroblast-like subclone of SK-N-SH, named SH-SY, was subcloned as SH-SY5, which was subcloned again as SH-SY5Y (Biedler J L et al. Cancer Res. 1978; 38:3751-7). Cells were cultured in high glucose D-MEM medium (Sigma, ref D6546) supplemented with 10% dialysed FCS (PAA, ref. A15-507, lot A50708-0050), 2 mM Glutamine (Sigma, G7513) and a 1× mix of Antibiotic-Antimycotic Stabilized (Sigma, ref. A5955) at 37° C. under a humidified atmosphere of 5% CO2. The day preceeding drug or hIFNα treatment, SH-SY5Y cells were plated in 6-well plates at a density of 10^6 cells/well. One 6-well plate was used per experimental condition (concentration or treatment duration). The day after plating, culture medium was removed and cells were incubated for 24 hours with a 10 μM solution of the compound to be tested molecules or a 1000 IU/ml solution of hIFNα (PBL biomedical laboratories). For hIFNα dose-response experiment cells were incubated with 1, 10, 100, and 1000 IU/ml of hIFNα solutions. For hIFNα time-course experiment cells were treated for 24, 48, or 72 hours with a 1000 IU/ml solution of hIFNα. After the different treatments, cells were directly lysed in RLT lysis buffer and total RNA purified according to manufacturer's protocol (Qiagen, RNeasy Plus mini kit, ref. 74134). Total RNA was then reverse transcribed with Thermoscript RT-PCR system Plus Taq (Invitrogen, 11146-032) and the resulting cDNA used for CE-SSCP and quantitative real-time PCR.
(§2) In order to quantify levels of 5-HT2CR, ADAR1 and ADAR2 mRNA expression in SH-SY5Y cells or in prefrontal cortex, total blood and skin of Balb/cJ mice, first-strand cDNA was synthesized by reverse transcription and subjected to TaqMan quantitative real-time PCR analysis (Applied Biosystems). All probes and primers used for the quantitative PCRs were from Applied Bio systems (Gene Expression Assays, Assay-On-Demand) (see Table 1, Applied Biosystems primers and probes references): […]
(§3) Human GAPDH (product no. 4326317E; Applied Biosystems) or mouse GAPDH (product no. 4352339E; Applied Biosystems) were included in each multiplex PCR as an internal control. Real-time PCR and subsequent analysis were performed with a 48-well block StepOne RT PCR system (Applied Biosystems). Quantification of target gene expression in all samples was normalized to GAPDH expression by the equation Ct (target)−Ct (GAPDH)=ΔCt, where Ct is the threshold cycle number. The mean ΔCt value of samples from untreated mice or cells was determined and used as a reference point for the samples corresponding to treated animals or cells. Differences between untreated and treated animals or cells, including individual variation were calculated by the equation (ΔCt (individual treated samples)−ΔCt (mean of untreated samples)=ΔΔCt). Changes in target gene expression (n-fold) in each sample were calculated by 2^−ΔΔCt, from which the means and standard deviations (SD) were derived.
(§4) The SH-SY5Y Human neuroblastoma cell line was purchased from ECACC. Cells were cultured in high glucose D-MEM medium (Sigma, ref. D6546) supplemented with 10% dialysed FCS (PAA, ref. A15-507, lot A50708-0050), 2 mM Glutamine (Sigma, ref. G7513) and a 1× mix of Antibiotic-Antimycotic Stabilized (Sigma, ref. A5955) at 37° C. under a humidified atmosphere of 5% CO2. The day preceeding hIFNα or drug treatment, SH-SY5Y cells were plated in 6-well plates (Corning, Multiwell Plate, 6 well, Corning CellBIND Surface, ref 3335) at a density of 5; 7 or 9·10^6 cells/well for a 72-, 48- or 24-hour treatment respectively. Six or eight wells of 6-well plates were used per experimental condition (control, concentration or treatment duration).

ADAR1b mRNA = test: Q-PCR of ADAR1b mRNA expression in SH-SY5Y cells; assay type: cell-based; conditions: Homo sapiens, 10 micromolar, 24 hours, read-out: QPCR: RNA expresion (% of variation) ADAR1b
Method: as §1, §2, §3, §4

ADAR2 mRNA = test: Q-PCR of ADAR2 mRNA expression in SH-SY5Y cells; assay type: cell-based; conditions: Homo sapiens, 10 micromolar, 24 hours, read-out: QPCR: RNA expresion (% of variation) ADAR2
Method: as §1, §2, §3, §4

[1] = SH-SY5Y, 10 micromolar, 24 hours, read-out: ENZYME ACTIVIY INDEX (% of variation) ADAR1
[2] = SH-SY5Y, 10 micromolar, 24 hours, read-out: ENZYME ACTIVIY INDEX (% of variation) ADAR1 + 2
[3] = SH-SY5Y, 10 micromolar, 24 hours, read-out: ENZYME ACTIVIY INDEX (% of variation) ADAR2
[4] = SH-SY5Y, 10 micromolar, 24 hours, read-out: ENZYME ACTIVIY INDEX (% of variation) ADARI
[5] = SH-SY5Y, 10 micromolar, 24 hours, read-out: ENZYME ACTIVIY INDEX (% of variation) ADARII
[6] = SH-SY5Y, 10 micromolar, 24 hours, read-out: ENZYME ACTIVIY INDEX (% of variation) NE
[7] = SH-SY5Y, 24 h, read-out: ENZYME ACTIVIY INDEX (% of variation) ADAR1
[8] = SH-SY5Y, 24 h, read-out: ENZYME ACTIVIY INDEX (% of variation) ADAR1 + 2
[9] = SH-SY5Y, 24 h, read-out: ENZYME ACTIVIY INDEX (% of variation) ADAR2
[10] = SH-SY5Y, 24 h, read-out: ENZYME ACTIVIY INDEX (% of variation) ADARI
[11] = SH-SY5Y, 24 h, read-out: ENZYME ACTIVIY INDEX (% of variation) ADARII
[12] = SH-SY5Y, 24 h, read-out: ENZYME ACTIVIY INDEX (% of variation) NE

Row | SMILES | activation at 10 µM (5-HT2cR mRNA; [1]) [%] | activation at 10 µM (5-HT2cR mRNA; [2]) [%] | activation at 10 µM (5-HT2cR mRNA; [3]) [%] | activation at 10 µM (5-HT2cR mRNA; [4]) [%] | activation at 10 µM (5-HT2cR mRNA; [5]) [%] | activation at 10 µM (5-HT2cR mRNA; [6]) [%] | % change in ADAR1a mRNA expression at 10 µM (ADAR1a mRNA) [%] | percent change in mRNA expression at 10 µM (ADAR1b mRNA) [%] | percent change in ADAR2 mRNA expression at 10 µM (ADAR2 mRNA) [%] | activation at 10 µM (5-HT2cR mRNA; [7]) [%] | activation at 10 µM (5-HT2cR mRNA; [8]) [%] | activation at 10 µM (5-HT2cR mRNA; [9]) [%] | activation at 10 µM (5-HT2cR mRNA; [10]) [%] | activation at 10 µM (5-HT2cR mRNA; [11]) [%] | activation at 10 µM (5-HT2cR mRNA; [12]) [%] | ENZYME ACTIVIY INDEX (% of variation) EC (5-HT2cR mRNA; SH-SY5Y, 10 micromolar, 24 hours) | alteration of 5-HT2cR mRNA editing compared with that observed after INFα treatment (component analysis, FIG. 4) (5-HT2cR mRNA)
1 | CC(NC(C)(C)C)C(=O)c1cccc(Cl)c1 (stereo not drawn) [Bupropion] | -16.3 | 42.6 | 68.9 | -8.9 | 34.7 | 5.3 | -66 | -51 | -40 | – | – | – | – | – | – | – | –
2 | NC(=O)N1c2ccccc2C=Cc2ccccc21 [Carbamazepine] | -3 | 38.8 | 26 | 3 | 36.4 | -3.8 | 52 | -62 | -42 | – | – | – | – | – | – | – | –
3 | CN(C)CCCC1(c2ccc(F)cc2)OCc2cc(C#N)ccc21 (stereo not drawn) [Citalopram] | -5.7 | 70.2 | 70.1 | 5.3 | 70.2 | -7.4 | -18 | -2 | 64 | – | – | – | – | – | – | – | –
4 | CNCCCN1c2ccccc2CCc2ccccc21 [Desipramine] | – | – | – | – | – | – | 29 | -38 | -12 | -8.6 | 5.7 | 15.5 | -6.6 | 7.5 | 5.9 | – | –
5 | NC(=O)OCC(COC(N)=O)c1ccccc1 [Felbamate] | 6.3 | -13.9 | -24.6 | 2.4 | -16 | -1.2 | -13 | -1 | 1 | – | – | – | – | – | – | – | –
6 | CCNC(C)Cc1cccc(C(F)(F)F)c1 (stereo not drawn) [Fenfluramine] | – | – | – | – | – | – | 7 | 23 | 27 | 4.2 | -43.3 | 0.7 | -4.8 | -34.8 | 4.5 | – | –
7 | NCC1(CC(=O)O)CCCCC1 [Gabapentin] | – | – | – | – | – | – | -42 | -34 | -21 | 19.2 | -28.5 | -26.7 | 10.1 | -28.1 | -8.3 | – | –
8 | Nc1nnc(-c2cccc(Cl)c2Cl)c(N)n1 [Lamotrigine] | 5.9 | -24.6 | -23 | 0.1 | -24.3 | 0.9 | -26 | -26 | -32 | – | – | – | – | – | – | – | –
9 | CC[C@@H](C(N)=O)N1CCCC1=O [Levetiracetam] | 12 | -36.6 | 10.9 | 2.8 | -27.4 | -3.1 | -9 | -11 | -17 | – | – | – | – | – | – | – | –
10 | Cc1cc2c(s1)Nc1ccccc1N=C2N1CCN(C)CC1 [Olanzapine] | – | – | – | – | – | – | -54 | 20 | 92 | -23.2 | 84.9 | 9.2 | -7.6 | 70.5 | 7 | – | –
11 | NC(=O)N1c2ccccc2CC(=O)c2ccccc21 [Oxcarbazepine] | 1.1 | -25.6 | -25.9 | -3.9 | -25.6 | 4.8 | -28 | -18 | -15 | – | – | – | – | – | – | −65.2* % | –
12 | CC(C)C[C@H](CN)CC(=O)O [Pregabalin] | – | – | – | – | – | – | -33 | -43 | -36 | 2.5 | -8.7 | -6.2 | 0.4 | -8.2 | -0.1 | – | –
13 | Cc1c(C(=O)NN2CCCCC2)nn(-c2ccc(Cl)cc2Cl)c1-c1ccc(Cl)cc1 [Rimonabant] | 13.3 | 2.4 | -3.7 | 11.3 | 1.2 | -10.4 | -43 | -32 | -7 | – | – | – | – | – | – | – | similarly altered
14 | C[C@H](NC(=O)C(C)(C)Oc1ccc(C(F)(F)F)cn1)[C@@H](Cc1ccc(Cl)cc1)c1cccc(C#N)c1 [Taranabant] | – | – | – | – | – | – | – | – | – | – | – | – | – | – | – | – | similarly altered
15 | CC1(C)O[C@@H]2[C@@H](CO[C@@]3(COS(N)(=O)=O)OC(C)(C)O[C@@H]23)O1 [Topiramate] | 14.4 | -19.5 | 11.4 | 8 | -13.5 | -8 | -44 | -46 | -60 | – | – | – | – | – | – | – | –
